Experimental data as given in patent US20250127937A1, “FAP INHIBITOR” (UNIVERSITÄT HEIDELBERG, priority 2018, published 2025).
Read-outs that look alike come from different tables or passages of the source.

Columns and labels:
human FAP-α = human FAP-α (Homo sapiens (Human), UniProt Q12884); experiment: Competitive binding of radiolabeled compound to HT-1080-FAP cells against unlabeled compound
Procedure: Competition experiments were performed by simultaneous exposure to unlabeled (10^−5 M to 10^−9M) and radiolabeled compound for 60 min. […] For internalization experiments, surface bound activity was removed by incubating the cells with 1 M glycine-HCl buffer for 10 min. The radioactivity was measured using a γ-counter, normalized to 1 mio cells and calculated as percentage of applied dose (% ID).
The medium was replaced by 1 mL fresh medium without fetal calf serum. […] Competition experiments were performed by simultaneous exposure to unlabeled (10^−5 M to 10^−9 M) and radiolabeled compound for 60 min. […] In all experiments, the cells were washed with 1 mL phosphate-buffered saline pH 7.4 for 2 times and subsequently lysed with 1.4 ml lysis buffer (0.3 M NaOH, 0.2% SDS). Radioactivity was determined in a γ-counter (Cobra II, Packard), normalized to 1 mio cells and calculated as percentage of the applied dose (% ID). Each experiment was performed 3 times, and 3 repetitions per independent experiment were acquired.

human CD26 = human CD26 (Homo sapiens (Human), UniProt P27487); experiment: Radioligand binding to CD26 expressing cells (HEK-CD26); settings: 60 min incubation
Procedure: (§1) In vitro binding studies were performed using the human tumor cell lines BxPC3, Capan-2, MCF-7 (purchased from Sigma Aldrich Chemie GmbH) and SK-LMS-1 (purchased from ATCC) as well as stably transfected FAP-cell lines HT-1080-FAP, HEK-muFAP and the CD26 expressing cell line HEK-CD26 (obtained from Stefan Bauer, NCT Heidelberg). All cells were cultivated in Dulbecco's modified Eagle's medium (DMEM) containing 10% fetal calf serum at 37° C./5% carbon dioxide. For fluorescence internalization experiments, cells were seeded on coverslips and stained with FAPI-02-Atto488 and DAPI for cell nucleus staining. Images were acquired on a laser scanning confocal microscope using a 63× oil immersion objective.
(§2) For radioligand binding studies, cells were seeded in 6-well plates and cultivated for 48 h to a final confluence of approx. 80-90% (1.2-2 mio cells/well). The medium was replaced by 1 mL fresh medium without fetal calf serum. The radiolabeled compound was added to the cell culture and incubated for different time intervals ranging from 10 min to 24 h. Competition experiments were performed by simultaneous exposure to unlabeled (10^−5 M to 10^−9 M) and radiolabeled compound for 60 min. […] Radioactivity was determined in a γ-counter (Cobra II, Packard), normalized to 1 mio cells and calculated as percentage of the applied dose (% ID). […]

HT-1080-FAP cells [1] = experiment: Radioligand binding and internalization in HT-1080-FAP cells; assay type: cell-based, human
Procedure: (§3) Radioligand binding studies were performed using HT-1080-FAP cells. The radiolabeled compound was added to the cell culture and incubated for different time intervals ranging from 10 min to 24 h. Competition experiments were performed by simultaneous exposure to unlabeled (10^−5 M to 10^−9M) and radiolabeled compound for 60 min. For efflux experiments, radioactive medium was removed after incubation for 60 min and replaced by non-radioactive medium for time intervals ranging from 1 to 24 h. For internalization experiments, surface bound activity was removed by incubating the cells with 1 M glycine-HCl buffer for 10 min. The radioactivity was measured using a γ-counter, normalized to 1 mio cells and calculated as percentage of applied dose (% ID).
(§4) For radioligand binding studies, cells were seeded in 6-well plates and cultivated for 48 h to a final confluence of approx. 80-90% (1.2-2 mio cells/well). The medium was replaced by 1 mL fresh medium without fetal calf serum. The radiolabeled compound was added to the cell culture and incubated for different time intervals ranging from 10 min to 24 h. Competition experiments were performed by simultaneous exposure to unlabeled (10^−5 M to 10^−9 M) and radiolabeled compound for 60 min. For efflux experiments, radioactive medium was removed after incubation for 60 min and replaced by non-radioactive medium for time intervals ranging from 1 to 24 h. In all experiments, the cells were washed with 1 mL phosphate-buffered saline pH 7.4 for 2 times and subsequently lysed with 1.4 ml lysis buffer (0.3 M NaOH, 0.2% SDS). Radioactivity was determined in a γ-counter (Cobra II, Packard), normalized to 1 mio cells and calculated as percentage of the applied dose (% ID). Each experiment was performed 3 times, and 3 repetitions per independent experiment were acquired.
For internalization experiments the cells were incubated with the radiolabeled compound for 60 min at 37° C. and 4° C. Cellular uptake was terminated by removing medium from the cells and washing 2 times with 1 mL PBS. Subsequently, cells were incubated with 1 mL of glycine-HCl (1 Min PBS, pH 2.2) for 10 min at room temperature to remove the surface bound activity. The cells were washed with 2 mL of ice-cold PBS and lysed with 1.4 mL of lysis buffer to determine the internalized fraction. For the cells incubated at 4° C., all washing and elution steps were carried out using ice-cold buffers. The radioactivity was measured using a γ-counter, normalized to 1 mio cells and calculated as percentage of applied dose (% ID).

HT-1080-FAP cells [2] = experiment: Efflux experiments in HT-1080-FAP cells; assay type: cell-based, human; settings: after 24 h in compound-free medium
Procedure: as §3, §4

[3] = system: FAP-negative cancer cell lines; experiment: Radioligand binding to FAP-negative human cancer cell lines; assay type: cell-based; settings: I-125 labeled, 60 min
Procedure: as §1, §2

[4] = system: HT-1080-FAP and HEK-muFAP cells; experiment: Fluorescence laser scanning microscopy of internalization, FAP-α expressing cells; assay type: cell-based; settings: fluorescently labeled, 1 to 2 hrs
Procedure: as §1
(§5) For internalization experiments HT-1080-FAP and HEK muFAP cells were seeded on uncoated coverslips in a 24-well plate and cultivated in culture medium containing 10% fetal calf serum to a final confluence of approx. 80-90%. The medium was removed and cells were washed with 0.5 mL PBS pH 7.4 for 2 times. FAPI-02-Atto488 (20 μM in DMEM) was added to the cells and incubated for 2 hrs at 37° C. Cells were washed with 0.5 mL PBS pH 7.4 for 3 times and fixed with paraformaldehyde (2% in PBS) for 15 min. The overgrown coverslips were placed on microscope slides using mounting medium containing DAPI for cell nucleus staining (Fluoroshield, Sigma-Aldrich). […]

HEK-CD26 cells = experiment: Fluorescence laser scanning microscopy of internalization, FAP-α negative cells; assay type: cell-based; settings: fluorescently labeled, 1 to 2 hrs
Procedure: as §1, §5

[5] = system: HT-1080-FAP tumor xenografts; experiment: Small-animal imaging (PET, scintigraphy) in HT-1080-FAP tumor bearing mice; assay type: in vivo, mouse; settings: F-18 labeled (nicotinamide or AlF-18 NOTA), up to 140 min after i.v.
Procedure: For in vivo experiments, 8 week old BALB/c nu/nu mice (Charles River) were subcutaneously inoculated into the right trunk with 5×10^6 with HT-1080-FAP, Capan-2 or SK-LMS-1 cells, respectively. When the size of the tumor reached approximately 1 cm^3, the radiolabeled compound was injected via the tail vein (˜10 MBq for small-animal PET imaging; ˜1 MBq for organ distribution). […] Images were reconstructed iteratively using the 3D-OSEM+MAP method and were converted to standardized uptake value (SUV) images. Quantification was done using a ROI technique and expressed as SUV mean. For organ distribution of Lu-177 labeled compound ([…]), the animals (n=3 for each time point) were sacrificed after indicated time points (from 30 min to 24 h). The distributed radioactivity was measured in all dissected organs and in blood using a γ-counter (Cobra Autogamma, Packard). The values are expressed as percentage of injected dose per gram of tissue (% ID/g).

[6] = system: HT-1080-FAP tumor xenografts; experiment: Organ distribution ex vivo in HT-1080-FAP tumor bearing nude mice; design: species or system mouse; settings: AlF-18-labeled, i.v.
[7] = I-125 labeled, 10 min incubation

Chain of human FAP-α (Q12884 whole entry): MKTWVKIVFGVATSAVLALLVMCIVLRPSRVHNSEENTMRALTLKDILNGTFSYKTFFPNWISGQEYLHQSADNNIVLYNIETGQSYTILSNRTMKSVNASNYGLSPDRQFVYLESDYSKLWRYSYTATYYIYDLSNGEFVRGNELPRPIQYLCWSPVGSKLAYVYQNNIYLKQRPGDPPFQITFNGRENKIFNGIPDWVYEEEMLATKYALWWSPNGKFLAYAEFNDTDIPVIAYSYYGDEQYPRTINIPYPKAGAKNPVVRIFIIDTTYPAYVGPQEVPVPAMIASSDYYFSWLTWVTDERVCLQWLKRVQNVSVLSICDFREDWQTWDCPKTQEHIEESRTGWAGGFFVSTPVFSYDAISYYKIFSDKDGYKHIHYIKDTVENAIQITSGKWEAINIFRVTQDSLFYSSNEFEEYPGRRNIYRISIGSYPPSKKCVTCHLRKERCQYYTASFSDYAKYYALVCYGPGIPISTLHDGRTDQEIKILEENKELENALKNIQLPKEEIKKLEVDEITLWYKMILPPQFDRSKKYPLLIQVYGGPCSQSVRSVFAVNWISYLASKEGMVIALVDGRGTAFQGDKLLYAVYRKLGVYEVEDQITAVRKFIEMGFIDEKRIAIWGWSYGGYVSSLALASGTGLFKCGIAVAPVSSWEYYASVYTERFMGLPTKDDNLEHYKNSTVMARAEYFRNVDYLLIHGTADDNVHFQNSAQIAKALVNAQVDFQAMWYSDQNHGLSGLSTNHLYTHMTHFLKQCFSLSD
Chain of human CD26 (P27487 whole entry): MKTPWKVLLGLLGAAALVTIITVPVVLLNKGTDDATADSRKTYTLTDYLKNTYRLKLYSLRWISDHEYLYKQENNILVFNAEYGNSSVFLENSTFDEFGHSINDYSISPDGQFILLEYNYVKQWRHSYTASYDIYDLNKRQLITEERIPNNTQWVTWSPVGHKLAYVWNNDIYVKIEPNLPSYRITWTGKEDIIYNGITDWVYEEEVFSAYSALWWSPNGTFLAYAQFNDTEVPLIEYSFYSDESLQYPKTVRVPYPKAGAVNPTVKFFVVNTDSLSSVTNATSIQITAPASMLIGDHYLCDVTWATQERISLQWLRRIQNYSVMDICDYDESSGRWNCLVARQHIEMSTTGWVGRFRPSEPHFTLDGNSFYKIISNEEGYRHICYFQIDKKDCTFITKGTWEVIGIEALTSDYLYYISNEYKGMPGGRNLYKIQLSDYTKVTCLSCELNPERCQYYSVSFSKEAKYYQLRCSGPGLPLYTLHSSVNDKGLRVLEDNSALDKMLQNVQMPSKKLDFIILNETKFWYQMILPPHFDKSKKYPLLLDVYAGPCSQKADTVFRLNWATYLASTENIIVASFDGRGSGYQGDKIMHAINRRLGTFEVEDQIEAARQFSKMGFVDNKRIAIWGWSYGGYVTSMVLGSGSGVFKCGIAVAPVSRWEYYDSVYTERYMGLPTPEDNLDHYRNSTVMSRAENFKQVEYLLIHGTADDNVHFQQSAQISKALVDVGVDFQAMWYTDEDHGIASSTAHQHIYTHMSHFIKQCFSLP

N#C[C@@H]1CCCN1C(=O)CNC(=O)c1ccnc2cccc(I)c12 [FAPI-01]
IC50 (human FAP-α; radiolabeled FAPI-01 (I-125) / FAPI-02 (Lu-177), HT-1080-FAP cells, 60 min, read-out: IC50 human FAP-α): 39.4 nM | binding to CD26 expressing cells (% ID) (human CD26): 0.05±0.01% | activity remaining after 24 h of incubation relative to initial radioactivity (HT-1080-FAP cells [1]; 24 h incubation, FAPI-01 compared to binding after 10 min): 5% | proportion of total bound fraction located intracellularly (HT-1080-FAP cells [1]; [7]): 95% | total bound fraction (HT-1080-FAP cells [1]; [7]): 19.70±0.28% | internalized proportion of total (HT-1080-FAP cells [1]; I-125 labeled, 4 h incubation): 94% | total bound fraction (HT-1080-FAP cells [1]; I-125 labeled, 4 h incubation): 17.00±0.40% | radioactivity (HT-1080-FAP cells [1]; I-125 labeled, after 24 h, 4° C. (reduced deiodinase activity)): 26.66±1.59% | intracellular radioactivity (HT-1080-FAP cells [1]; I-125 labeled, after 24 h, 37° C.): 3.25±0.29% | retained radioactivity (efflux) (HT-1080-FAP cells [2]): 1.1 % ID | retention of the originally accumulated radioactivity (efflux) (HT-1080-FAP cells [2]): 1.1% | binding to FAP-negative cancer cell lines [3]: no significant binding

CN(CCCC(=O)N1CCN(CCCOc2ccc3nccc(C(=O)CCCN4CCC[C@H]4C#N)c3c2)CC1)Cc1ccccc1-c1c2ccc(=N)cc-2oc2c(S(=O)(=O)O)c(N)ccc12 [FAPI-02-Atto488]
internalization into FAP-α expressing cells [4]: completely internalized | uptake in FAP-α negative HEK-CD26 cells (HEK-CD26 cells): no uptake is detectable

N#C[C@@H]1CC(F)(F)CN1C(=O)CNC(=O)c1ccnc2ccc(OCCCN3CCN(C(=O)[C@H](CC(C(=O)O)C(=O)O)NC(=O)CN4CCN(CC(=O)O)CCN(CC(=O)O)CC4)CC3)cc12 [FAPI-75]
IC50 (human FAP-α; F-18-FAPI derivatives, table title says EC50, head says IC50, read-out: IC50): 2.9 nM | PET imaging findings [5]: high target specificity and fast clearance | tumor uptake in organ distribution [6]: high tumor uptake
